Source: patent US9669003B2, “Use of flavone and flavanone derivatives in preparation of sedative and hypnotic drugs” (priority 2012, dated 2017)
Marks after values point to notes of the source that are not given here.

Columns and labels:
Type in all cases: in vivo
Kunming mice [1] = assay: Influence on autonomic activity of normal mice (ZIL-2 mice autonomic activity meter, counts within 10 min); details: intragastric, x ± s; for Times of activities in 1 h after drug administration/10 min: 1 h after administration; for Times of activities in 2 h after drug administration/10 min: 2 h after administration; for Times of activities in 24 h after drug administration/10 min: 24 h after administration
Summary of the method: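 Kunming mice (10 per group, half each sex) were dosed at 25, 50 or 100 mg/kg in 0.5% CMC-Na. Spontaneous activity counts over 10 min were recorded at 1 h, 2 h and 24 h post-dose. Groups were compared by ANOVA with Dunnett's test after Levene's check.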

Kunming mice [2] = assay: Influence on hypnosis effect with pentobarbital sodium doses below the threshold (25 mg/kg i.p.); details: pentobarbital sodium 25 mg/kg i.p. 60 min later, sleep observed in 30 min, n = 10
Summary of the method: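 Kunming mice (10 per group, half female) given single oral doses of 25, 50 or 100 mg/kg in 0.5% CMC-Na; 60 min later pentobarbital sodium 25 mg/kg i.p. Sleep (righting reflex lost >1 min) scored within 30 min as percentage asleep, χ2 test.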

Kunming mice [3] = assay: Influence on hypnosis effect with pentobarbital sodium doses at the threshold (50 mg/kg i.p.); details: pentobarbital sodium 50 mg/kg i.p. 60 min later, x ± s, n = 10
Summary of the method: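 Kunming mice (10/group, half each sex) received compound in 0.5% CMC-Na intragastrically at 25, 50 or 100 mg/kg; 60 min later given 0.3% sodium pentobarbital 50 mg/kg i.p. Sleep latency and duration recorded by loss of righting reflex over 1 min; ANOVA and χ2 for sleep incidence.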

[4] = test drug 25 mg/kg intragastric single dose
[5] = test drug 50 mg/kg intragastric single dose
[6] = test drug 100 mg/kg intragastric single dose
[7] = 25 mg/kg intragastric single dose
[8] = 50 mg/kg intragastric single dose
[9] = 100 mg/kg intragastric single dose

Structure (SMILES)	Times of activities in 1 h after drug administration/10 min (Kunming mice [1]; 25 mg/kg, n = 10)	Times of activities in 2 h after drug administration/10 min (Kunming mice [1]; 25 mg/kg, n = 10)	Times of activities in 24 h after drug administration/10 min (Kunming mice [1]; 25 mg/kg, n = 10)	Times of activities in 1 h after drug administration/10 min (Kunming mice [1]; 50 mg/kg, n = 10)	Times of activities in 2 h after drug administration/10 min (Kunming mice [1]; 50 mg/kg, n = 10)	Times of activities in 24 h after drug administration/10 min (Kunming mice [1]; 50 mg/kg, n = 10)	Times of activities in 1 h after drug administration/10 min (Kunming mice [1]; 100 mg/kg, n = 10)	Times of activities in 2 h after drug administration/10 min (Kunming mice [1]; 100 mg/kg, n = 10)	Number of sleeping animals (Kunming mice [2]; [4])	rate of sleeping (%) (Kunming mice [2]; [4])	Number of sleeping animals (Kunming mice [2]; [5])	rate of sleeping (%) (Kunming mice [2]; [5])	Number of sleeping animals (Kunming mice [2]; [6])	rate of sleeping (%) (Kunming mice [2]; [6])	duration of sleep (Kunming mice [3]; [7]) [min]	time to sleep (Kunming mice [3]; [7]) [min]	duration of sleep (Kunming mice [3]; [8]) [min]	time to sleep (Kunming mice [3]; [8]) [min]	duration of sleep (Kunming mice [3]; [9]) [min]	time to sleep (Kunming mice [3]; [9]) [min]	other results
CC=Cc1cc(C(=O)O)c2c(=O)cc(-c3ccc(C#N)c(C(=O)O)c3)oc2c1 [Example 40]	291.4 ± 51.5 /10 min	276.0 ± 48.7 /10 min	311.2 ± 79.9 /10 min	245.7 ± 44.5 /10 min	223.6 ± 43.8 /10 min	288.9 ± 68.9 /10 min	145.7 ± 39.8 /10 min	169.8 ± 40.5 /10 min	4	40* %	6	60** %	7	70** %	21.71 ± 26.77	5.32 ± 2.47	27.68 ± 27.86	5.13 ± 2.64	61.35 ± 45.27	4.92 ± 1.26	Times of activities in 24 h after drug administration/10 min (Kunming mice [1]; 100 mg/kg, n = 10): 301.5 ± 91.8 /10 min
COc1ccc(-c2oc3c(OC)c(OC)c(OC)c(OC)c3c(=O)c2OC)cc1OC [Example 41, 3,5,6,7,8,3′,4′-heptamethoxyl-flavone]	285.2 ± 44.1 /10 min	266.0 ± 40.6 /10 min	307.2 ± 69.7 /10 min	260.4 ± 37.9 /10 min	245.5 ± 28.1 /10 min	306.2 ± 81.3 /10 min	198.6 ± 58.8 /10 min	171.5 ± 56.7 /10 min	4	40* %	6	60** %	8	80*** %	22.16 ± 16.23	5.33 ± 2.25	28.34 ± 17.13	5.12 ± 2.09	65.44 ± 37.54	3.16 ± 1.23	Times of activities in 24 h after drug administration/10 min (Kunming mice [1]; 100 mg/kg, n = 10): 291.5 ± 70.0 /10 min
COc1ccc(C2CC(=O)c3c(O)c(OC)c(OC)c(OC)c3O2)cc1 (stereo not drawn) [Example 42, 5-hydroxyl-6,7,8,4′-tetramethoxyl-flavanone]	231.2 ± 47.3 /10 min	233.2 ± 35.1 /10 min	313.5 ± 68.2 /10 min	154.5 ± 43.2 /10 min	145.3 ± 41.3 /10 min	310.3 ± 62.5 /10 min	108.5 ± 48.5 /10 min	104.3 ± 42.5 /10 min	5	50** %	8	80*** %	9	90*** %	58.90 ± 15.38	4.42 ± 1.65	69.37 ± 20.24	3.30 ± 1.32	78.53 ± 19.87	2.26 ± 1.28	Times of activities in 24 h after drug administration/10 min (Kunming mice [1]; 100 mg/kg, n = 10): 302.6 ± 69.3 /10 min
COc1ccc(C2CC(=O)c3c(O)c(OC)c(OC)c(OC)c3O2)cc1OC (stereo not drawn) [Example 43, 5-hydroxyl-6,7,8,3′,4′-penta methoxyl-flavanone]	–	–	–	–	–	–	–	–	5	50** %	7	70** %	8	80*** %	32.33 ± 23.16	4.88 ± 1.91	59.98 ± 18.43	4.19 ± 1.74	63.07 ± 33.12	3.85 ± 1.76	Times of activities in 1 h after drug administration/10 min (Kunming mice [1]; 25 mg/kg, n = 10, 25 mg/kg): 293.7 ± 41.4 /10 min; Times of activities in 2 h after drug administration/10 min (Kunming mice [1]; 25 mg/kg, n = 10, 25 mg/kg): 306.3 ± 51.6 /10 min; Times of activities in 24 h after drug administration/10 min (Kunming mice [1]; 25 mg/kg, n = 10, 25 mg/kg): 324.7 ± 71.3 /10 min; Times of activities in 1 h after drug administration/10 min (Kunming mice [1]; 50 mg/kg, n = 10, 50 mg/kg): 254.1 ± 42.7 /10 min; Times of activities in 2 h after drug administration/10 min (Kunming mice [1]; 50 mg/kg, n = 10, 50 mg/kg): 252.6 ± 41.6 /10 min; Times of activities in 24 h after drug administration/10 min (Kunming mice [1]; 50 mg/kg, n = 10, 50 mg/kg): 313.7 ± 68.5 /10 min; Times of activities in 1 h after drug administration/10 min (Kunming mice [1]; 100 mg/kg, n = 10, 100 mg/kg): 265.4 ± 49.2 /10 min; Times of activities in 2 h after drug administration/10 min (Kunming mice [1]; 100 mg/kg, n = 10, 100 mg/kg): 258.1 ± 32.7 /10 min; Times of activities in 24 h after drug administration/10 min (Kunming mice [1]; 100 mg/kg, n = 10, 100 mg/kg): 294.1 ± 72.3 /10 min
COc1ccc(C2CC(=O)c3c(OC)cc(OC)c(OC)c3O2)cc1OC (stereo not drawn) [Example 44, 5,7,8,3′,4′-penta methoxyl-flavanone]	220.8 ± 54.6 /10 min	228.7 ± 43.3 /10 min	311.6 ± 60.1 /10 min	143.4 ± 41.3 /10 min	133.5 ± 38.3 /10 min	315.1 ± 85.5 /10 min	103.4 ± 43.5 /10 min	101.7 ± 45.1 /10 min	6	60** %	7	70** %	9	90*** %	58.25 ± 15.16	4.43 ± 1.55	76.74 ± 25.45	3.46 ± 1.23	89.39 ± 23.44	3.05 ± 1.57	Times of activities in 24 h after drug administration/10 min (Kunming mice [1]; 100 mg/kg, n = 10): 303.8 ± 81.2 /10 min
